Here are results for one molecule from patent US4151278A, “Process for the preparation of an extract of Teucrium marum used in particular in therapy” (Institut de Recherches Chimiques et Biologiques Appliquees, priority 1976, dated 1979).

The test relates to spontaneous respiration in male guinea pigs. As to the kind of experiment: Analeptic respiratory activity after morphine depression. The format is in vivo. The settings on record: 20 mg/kg intravenously; reference; before morphine 58, 20 minutes after morphine 29. The procedure: The spontaneous respiration in male guinea pigs, weighing 400-600 g, which have been anaesthetized, is recorded by means of a tracheal probe connected to an electronic recorder.
In a first stage, the respiration is depressed by an intravenous injection of 10 mg/kg of morphine. In a second stage, 20 minutes after the morphine, the product to be studied is injected intravenously.
The respiratory rhythm is recorded before the injection of morphine, and before and 1 minute after the injection of the product to be studied.

SMILES strings stand for the structures.

As for `Cn1c(=O)c2[nH]cnc2n(C)c1=O` [theophylline], the “respiratory rhythm 1 minute after administration of the product” value amounted to 47 pulsations/minute.
